Results as given in publication PMC9400670, “Establishing the selective phospholipid membrane coordination, permeation and lysis properties for a series of ‘druggable’ supramolecular self-associating antimicrobial amphiphiles” (Chemical Science, 2022).

Tests used:
[1] = system: calcein loaded phospholipid vesicles (PC, PG, PE-PG mix, E. coli total, E. coli polar); assay: Synthetic phospholipid vesicle lysis (calcein leakage) assay; conditions: SSA titration; concentrations ≤0.5 mM; after 15 min; in words
[2] = system: calcein loaded phospholipid vesicles (PC, PG, PE-PG mix, E. coli total, E. coli polar); assay: as above; conditions: SSA 1.5 mM, in words; for time dependence of vesicle lysis: 15 min vs 30 s, E. coli-based vesicles
Experimental: Here, samples of phospholipid vesicles containing the fluorescent dye calcein were prepared. At internal vesicle concentrations, this dye undergoes self-quenching. […] The increase in fluorescence output is proportional to the % of vesicle lysis observed upon the addition of SSAs 1–14, when calibrated against a solution of vesicles know to have undergone 100% lysis, see Fig. 5.
Fig. 5 The average (n = 3) percentage lysis (%) of vesicles (30 μM) composed of five different lipid compositions (Table 2), with an internal calcein concentration of 70 mM at 298 K. The % vesicle lysis was calculated through observation of increasing fluorescence emission (λem = 515 nm), following the addition of SSAs […] (1.5 mM) in a H2O/EtOH 95 : 5 solution after: (a) 30 s and; (b) 15 min. Triton X-100 (1%) was used as a positive control for 100% vesicle lysis. Data normalised to the addition of a H2O/EtOH 95 : 5 solution. Red = PC, yellow = PG, green = PE-PG mix, blue = E. coli total, pink = E. coli polar. Error = standard error.
Section 2: General Methods […]
Preparation of vesicles: All lipids were purchased as powder stocks from Avanti Polar Lipids. Lipid vesicles were prepared according to standard procedures.1 Each phospholipid was dissolved in chloroform (~ 10 mL) and the solvent was removed under reduced pressure. The thin film of dried lipid was further dried in vacuo for at least 2 hours. Lipid films were resuspended in the desired buffer and subjected to 9 freeze-thaw cycles in liquid nitrogen and extruded 20 times through a 200 nm […]
Preparation of calcein loaded vesicles: Lipid films were resuspended in buffer A (70 mM calcein, 10 mM TRIS pH 8.5, 0.5 mM EDTA, 110 mM NaCl, pH adjusted to 6-7) and subjected to 9 freeze-thaw cycles in liquid nitrogen and extruded 20 times through a 200 nm polycarbonate membrane. The suspension was run down a size exclusion column packed with sephadex G-50 using buffer B (10 mM TRIS pH 8.5, 0.5 mM EDTA, 110 mM NaCl). The hydrodynamic dimeter of the lipids was monitored using an Anton Paar LitesizerTM 500 to ensure the separation of free and entrapped calcein.
Phospholipid concentration was adjusted to 30 µM for vesicle leakage experiments.
Vesicle leakage assay: Black bottom 96-well plates were prepared with the appropriate lipid solution (100 µL, 30 µM) and desired SSA solution (100 µL) prepared in H2O/EtOH 95: 5. A solution of 1 % Triton X-100 (16) was used for a 100 % lysis control and a H2O/EtOH 95: 5 solution was used as a 0 % lysis control. Fluorescent measurements were taken at 25 °C using an excitation value of 495 nm and an optimised gain of 983. Data were acquired in endpoint mode. All experiments were repeated in triplicate to ensure experimental reproducibility. […]
Data

SMILES | vesicle lysis PG over PC [1] | time dependence of vesicle lysis [2] | vesicle lysis activity ([2]; thirty seconds after SSA addition, five vesicle types)
O=C(NCS(=O)(=O)O)Nc1ccccc1-c1nc2ccccc2s1 [SSA 5] | enhanced levels of vesicle lysis against PG | – | –
Cc1ccc2nc(-c3ccc(NC(=O)NCS(=O)(=O)O)cc3)sc2c1 [SSA 6] | enhanced levels of vesicle lysis against PG | time dependent enhancement of vesicle lysis | –
O=C(NCS(=O)(=O)O)Nc1ccc(-c2nc3ccccc3s2)cc1 [SSA 8] | enhanced levels of vesicle lysis against PG | time dependent enhancement of vesicle lysis | –
Cc1ccc2nc(-c3ccc(NC(=O)NCCC(=O)O)cc3)sc2c1 [SSA 9] | – | time dependent enhancement of vesicle lysis | –
Cc1ccc2nc(-c3ccc(NC(=O)NCCCS(=O)(=O)O)cc3)sc2c1 [SSA 10] | – | time dependent enhancement of vesicle lysis | –
Cc1ccc2nc(-c3ccc(NC(=O)NCC(=O)O)cc3)sc2c1 [SSA 11] | – | – | general surfactant type properties, similar to that of Triton
